What was measured:
[1] = system: blood leukocytes and basophils; assay: Study on evaluation of blood leukocyte count and basophil count in humans (placebo-controlled, randomized, double-blind, parallel-group); format: in vivo; conditions: one capsule with 20 mg L-ergothioneine per day orally for four weeks, week 4 vs pre-testing, compared with control food group
Description: In order to evaluate the influence of supplements containing ergothioneine on blood leukocyte count and basophil count in humans, a placebo-controlled, randomized, double-blind, parallel-group study was conducted on subjects including male and female adults (46 subjects in a test food group; 46 subjects in a control food group; 92 subjects in total). In this study, one capsule containing 20 mg ergothioneine (test food) or one capsule not containing ergothioneine (control food) was fed per day for four weeks. The blood leukocyte count and basophil count in each subject were measured for pre-testing before starting the study (before starting ingestion of the test food or control food). After ingestion of the test food or control food for four weeks, the blood leukocyte count and basophil count in each subject were measured again (testing on week 4). […] Specifically, the amount of change in the test food group at the time of testing on week 4 was determined for the test food group by subtracting the blood leukocyte count (average) at the time of pre-testing from the blood leukocyte count (average) at the time of testing on week 4. Similarly, the amount of change at the time of testing on week 4 was determined for the control food group by subtracting the blood leukocyte count (average) at the time of pre-testing from the blood leukocyte count (average) at the time of testing on week 4. […]

[2] = molecular target: T1, recombinant human epidermal growth factor receptor (EGFR) tyrosine kinase (Homo sapiens, UniProt P00533); assay: Evaluation of activity to inhibit substrate binding of EGFR tyrosine kinase ([32P]Poly(Glu:Tyr) formation, Eurofins Panlabs); format: biochemical; conditions: 100 or 1000 μM L-ergothioneine, HEPES buffer pH 7.4, 37° C., 10 μM ATP, 0.2 mg/mL Poly(Glu:Tyr)
T1 construct: host or cells: insect cells
Description: The study was commissioned to Eurofins Panlabs. The study was performed using recombinant human epidermal growth factor receptor (EGFR) tyrosine kinase expressed in insect cells. First, epidermal growth factor receptor (EGFR) tyrosine kinase (0.134 μg/mL) was incubated in HEPES buffer (pH 7.4) with 100 or 1000 μM L-ergothioneine at 37° C. for 15 minutes. Then, 0.2 mg/mL Poly(Glu:Tyr), 10 μM ATP, and 0.25 μCi [γ^32P] ATP were added. Thereby, an enzymatic reaction was initiated. After incubating at 37° ° C. for 30 minutes, 3% H3PO4 was added to terminate the reaction. Lastly, the activity of ergothioneine to inhibit substrate binding was evaluated using the amount of [^32P]Poly(Glu:Tyr) formed in the reaction as an index.

[3] = mice orally administered with ergothioneine vs mice not administered; cited from earlier work
[4] = system: IL-6, IL-12p40, IL-1β, and IL-10; conditions: absence of the TLR ligand, ergothioneine concentration 0 or 10 mM; cited from earlier work

T1 sequence (P00533 25-1210): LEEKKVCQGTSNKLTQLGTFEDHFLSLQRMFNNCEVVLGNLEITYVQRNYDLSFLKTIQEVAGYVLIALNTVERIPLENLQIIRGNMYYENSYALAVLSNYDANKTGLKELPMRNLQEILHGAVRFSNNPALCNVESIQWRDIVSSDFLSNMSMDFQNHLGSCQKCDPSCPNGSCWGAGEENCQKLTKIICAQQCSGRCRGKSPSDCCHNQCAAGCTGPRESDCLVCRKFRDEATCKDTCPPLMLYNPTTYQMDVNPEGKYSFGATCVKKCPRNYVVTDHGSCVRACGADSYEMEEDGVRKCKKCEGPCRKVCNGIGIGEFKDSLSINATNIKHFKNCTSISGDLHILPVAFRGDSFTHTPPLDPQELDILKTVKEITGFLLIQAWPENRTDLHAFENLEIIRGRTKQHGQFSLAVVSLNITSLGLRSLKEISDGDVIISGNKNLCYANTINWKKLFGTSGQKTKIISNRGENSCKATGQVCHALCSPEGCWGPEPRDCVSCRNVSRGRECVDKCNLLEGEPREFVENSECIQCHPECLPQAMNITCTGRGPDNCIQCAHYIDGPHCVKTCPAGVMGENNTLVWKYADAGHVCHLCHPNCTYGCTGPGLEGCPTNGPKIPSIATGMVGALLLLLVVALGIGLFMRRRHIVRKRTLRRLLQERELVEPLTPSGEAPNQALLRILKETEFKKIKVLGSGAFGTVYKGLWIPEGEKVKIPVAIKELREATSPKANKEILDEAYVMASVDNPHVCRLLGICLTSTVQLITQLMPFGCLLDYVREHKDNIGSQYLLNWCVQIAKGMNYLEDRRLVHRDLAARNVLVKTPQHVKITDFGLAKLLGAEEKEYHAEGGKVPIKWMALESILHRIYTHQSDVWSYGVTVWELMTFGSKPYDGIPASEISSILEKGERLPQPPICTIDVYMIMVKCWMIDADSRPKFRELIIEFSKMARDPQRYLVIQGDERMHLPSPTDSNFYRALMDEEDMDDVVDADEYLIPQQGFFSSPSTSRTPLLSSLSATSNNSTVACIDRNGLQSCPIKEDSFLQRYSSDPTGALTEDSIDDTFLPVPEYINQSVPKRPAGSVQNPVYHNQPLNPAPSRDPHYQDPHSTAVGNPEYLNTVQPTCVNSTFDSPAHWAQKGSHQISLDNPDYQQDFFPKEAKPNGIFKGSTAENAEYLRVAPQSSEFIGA

## C[N+](C)(C)[C@@H](Cc1c[nH]c(=S)[nH]1)C(=O)[O-] [L-ergothioneine]
[1]
  amount of change in blood basophil count (Δ in basophils (%)): significantly increased
  amount of change in blood leukocyte count (Δ in leukocytes (cells/μL)): significantly increased
[2]
  activity to inhibit substrate binding of epidermal growth factor receptor (EGFR) tyrosine kinase: showed an activity to inhibit substrate binding
[3]
  peritesticular fat weight: lower
  triglyceride (neutral fat) level in plasma: lower
[4]
  detection of IL-6, IL-12p40, IL-1β, and IL-10: none of IL-6, IL-12p40, IL-1β, and IL-10 was detected

— patent US20240216335A1, “COMPOSITION FOR INCREASING LEUKOCYTES AND/OR BASOPHILS” (SUNTORY HOLDINGS LIMITED, priority 2021, published 2024)
